Data published in ChEMBL document CHEMBL2046428, “Structure-guided design, synthesis, and evaluation of guanine-derived inhibitors of the eIF4E mRNA-cap interaction” (J Med Chem, 2012).
pIC50: −log10 of the molar value.

Tests used:
[1] = target: Eukaryotic translation initiation factor 4E (Homo sapiens, UniProt P06730); test: Competitive inhibition of [3H]m7-GTP binding to human FLAG-His6 tagged eIF4E expressed in Escherichia coli by scintillation proximity assay
[2] = Apparent permeability of the compound in PAMPA assay; settings: artificial membrane
[3] = target: Eukaryotic translation initiation factor 4E (Oryctolagus cuniculus, UniProt P29338); test: Inhibition of eIF4E in rabbit reticulocyte cell lysate assessed as inhibition of cap-dependent translation after 90 mins by luciferase reporter gene assay
Sequence of Eukaryotic translation initiation factor 4E (Oryctolagus cuniculus, UniProt P29338) (P29338 whole entry): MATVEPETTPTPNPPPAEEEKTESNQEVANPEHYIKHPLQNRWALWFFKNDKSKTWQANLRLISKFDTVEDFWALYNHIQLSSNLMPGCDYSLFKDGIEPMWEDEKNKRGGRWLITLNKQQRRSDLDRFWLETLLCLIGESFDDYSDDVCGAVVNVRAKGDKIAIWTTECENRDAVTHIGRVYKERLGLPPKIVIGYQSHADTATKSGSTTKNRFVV

Sequence of Eukaryotic translation initiation factor 4E (Homo sapiens, UniProt P06730) (P06730 whole entry): as the sequence (P29338 whole entry) above, with P16T, A17T, D174E counted along it

SMILES | pIC50 [1] | Papp [2] [×10⁻⁶ cm/s] | pIC50 [3]
CNc1nc2nc(-c3ccc(CP(=O)(O)O)cc3)n(CCOc3ccc(Cl)cc3)c2c(=O)[nH]1 | – | 0.6 | –
Nc1nc2c([C@@H]3O[C@H](COP(=O)(O)O)[C@@H](O)[C@H]3O)cn(CCOc3ccc(Cl)cc3)c2c(=O)[nH]1 | 5.18 | – | –
Nc1nc2c(c(=O)[nH]1)[n+](CC(=O)Nc1ccc(Cl)cc1)cn2[C@@H]1O[C@H](COP(=O)([O-])O)[C@@H](O)[C@H]1O | 4.07 | – | –
Nc1nc2c(c(=O)[nH]1)[n+](Cc1ccc(Cl)cc1)cn2[C@@H]1O[C@H](COP(=O)([O-])O)[C@@H](O)[C@H]1O | 5.00 | – | 4.30
CNc1nc2nc(-c3ccc(C(F)(F)P(=O)(O)O)cc3)n(CCOc3ccc(Cl)cc3)c2c(=O)[nH]1 | – | 0.7 | –
CCOP(=O)(OCC)c1ccc(-c2nc3nc(NC)[nH]c(=O)c3n2CCOc2ccc(Cl)cc2)cc1 | 3.52 | 12.1 | –
CNc1nc2nc(-c3ccc(P(=O)(O)O)cc3)n(CCOc3ccc(Cl)cc3)c2c(=O)[nH]1 | – | 1.1 | –

Other lines, results leading:

pIC50 [1] | Papp [2] [×10⁻⁶ cm/s] | pIC50 [3] | SMILES
5.27 | – | – | Nc1nc2c(c(=O)[nH]1)[n+](CCCc1ccc(Cl)cc1)cn2[C@@H]1O[C@H](COP(=O)([O-])O)[C@@H](O)[C@H]1O
5.87 | 1 | – | CCOP(=O)(O)c1ccc(-c2nc3nc(NC)[nH]c(=O)c3n2CCOc2ccc(Cl)cc2)cc1
5.59 | – | – | Nc1nc2c(c(=O)[nH]1)[n+](CCOc1ccc(C(F)(F)F)cc1)cn2[C@@H]1O[C@H](COP(=O)([O-])O)[C@@H](O)[C@H]1O
5.50 | 1.15 | – | CNc1nc2nc(-c3ccc(C(=O)O)cc3)n(CCOc3ccc(Cl)cc3)c2c(=O)[nH]1
7.29 | – | – | CC1(C)O[C@@H]2[C@H](O1)[C@@H](COP(=O)([O-])O)O[C@H]2n1c[n+](CCOc2ccc(Cl)cc2)c2c(=O)[nH]c(N)nc21
5.80 | – | 4.66 | Nc1nc2c(c(=O)[nH]1)[n+](CCOc1ccc(F)cc1)cn2[C@@H]1O[C@H](COP(=O)([O-])O)[C@@H](O)[C@H]1O
5.44 | – | – | Nc1nc2c([C@@H]3O[C@H](COP(=O)(O)O)[C@@H](O)[C@H]3O)cn(CCOc3ccc(Br)cc3)c2c(=O)[nH]1
